From patent US6576190B1, “Method and apparatus for sterilizing and disinfecting bedclothes using ultraviolet rays and ozone” (Bioneer Corporation, priority 1999, dated 2003)

Assays:
[1] = tested on: Staphylococcus aureus KCTC 1621; experiment: Test for sterilizing microorganisms, ozone exposure of agar culture; assay type: cell-based; settings: S. aureus, ozone 70 ppm, humidity 50%, no direct UV
Source text: (§1) The microorganisms used for the sterilization test were Escherichia coli DH12S, Staphylococcus aureus KCTC 1621 and Candida albicans KCTC 7965, which are known as pathogenic microorganisms. An UV/O3 lamp ([…]) was used as the generator for generating ultraviolet rays and ozone.
(§2) Each of the microorganisms was cultivated on appropriate culture medium used commonly: Escherichia coli was cultivated on LB culture medium, Staphylococcus aureus was cultivated on Tryptic Soy culture medium; and Candida albicans was cultivated on YM culture medium. A sample of the microorganism was prepared as follows: After each of the microorganisms was cultivated on agar culture medium, one colony was taken. And then the colony was inoculated into broths of 5 ml, which was cultivated for two hours. The sample prepared as mentioned above was kept in cold storage for the following use. The broths used for cultivation were diluted gradually from an undiluted solution to 10-8, and then they were painted over the agar culture medium. One control was obtained from each of the diluted samples, and seven samples for test were obtained from each of the diluted samples. The control and samples were subject to pre-incubation in the incubator with the temperature of 37° C. for 30 minutes, which was used for sterilization test.
(§3) The concentration of the ozone in the sterilizing and disinfecting room reached 50 ppm within two or three minutes. And the concentration of the ozone was adjusted so that it was maintained to 70 ppm.
(§4) The humidity was maintained to 50%. The agar culture medium was placed on several position where it was not exposed to the ultraviolet rays and it had good ventilation. One agar culture medium corresponding to the bedclothes as a test sample was taken every ten minutes after the generator for generating the ultraviolet rays and the ozone was operated. The agar culture medium was cultivated together with the control sample in the incubator with the temperature of 37° C. for 48 hours. […] The number of the real microorganisms and the number of the surviving microorganisms were added together taking the number of the colony and the dilution rate of each sample into account. The test as mentioned above was repeated three times for the purpose of obtaining the statistical effectiveness.

[2] = tested on: Candida albicans KCTC 7965; experiment: as above; assay type: cell-based; settings: C. albicans, ozone 70 ppm, humidity 50%, no direct UV
Source text: as §1, §2, §3, §4

[3] = tested on: Escherichia coli DH12S; experiment: as above; assay type: cell-based; settings: E. coli, ozone 70 ppm, humidity 50%, no direct UV
Source text: as §1, §2, §3, §4

[4] = tested on: house dust mites (Dermatophagoides farinae, Dermatophagoides pterohyssinus and Tyrophagus putrescentiae mixed); experiment: Test for killing mites; assay type: in vivo; settings: ozone 50 ppm, humidity 72%, 2 hours, no direct UV
Source text: Mites used for test was the house dust mites (samples containing Dermatophagoides farinae, Dermatophagoides pterohyssinus and Tyrophagus putrescentiae mixed up one another were used) which were generally known as primary cause of allergy, which was distributed from the parasitology class of the medical college of Yonsei University in Korea. After the opening the lid of the tube containing twenty mites, the mites were exposed to the environment with the ozone of 50 ppm and the humidity of 72% for 2 hours while the mites were not exposed directly to the ultraviolet rays. After exposition of the mites to the ozone for a given time period, the number of the surviving mites and the number of the dead mites were counted by means of a microscopic examination.

O=[O+][O-] [ozone]
Number of surviving microorganisms (surviving colonies) ([1]; exposure 10 min.): 1,220,000 | Number of surviving microorganisms (surviving colonies) ([1]; exposure 20 min.): 101,000 | Number of surviving microorganisms (surviving colonies) ([1]; exposure 30 min.): 9,100 | Number of surviving microorganisms (surviving colonies) ([1]; exposure 40 min.): 1,260 | Number of surviving microorganisms (surviving colonies) ([1]; exposure 50 min.): 345 | Number of surviving microorganisms (surviving colonies) ([1]; exposure 60 min.): 96 | Number of surviving microorganisms (surviving colonies) ([2]; exposure 10 min.): 12,400 | Number of surviving microorganisms (surviving colonies) ([2]; exposure 20 min.): 2,840 | Number of surviving microorganisms (surviving colonies) ([2]; exposure 30 min.): 960 | Number of surviving microorganisms (surviving colonies) ([2]; exposure 40 min.): 388 | Number of surviving microorganisms (surviving colonies) ([2]; exposure 50 min.): 192 | Number of surviving microorganisms (surviving colonies) ([2]; exposure 60 min.): 118 | Number of surviving microorganisms (surviving colonies) ([3]; exposure 10 min.): 11,000 | Number of surviving microorganisms (surviving colonies) ([3]; exposure 20 min.): 2,700 | Number of surviving microorganisms (surviving colonies) ([3]; exposure 30 min.): 559 | Number of surviving microorganisms (surviving colonies) ([3]; exposure 40 min.): 270 | Number of surviving microorganisms (surviving colonies) ([3]; exposure 50 min.): 101 | Number of surviving microorganisms (surviving colonies) ([3]; exposure 60 min.): 52 | Killing of young mites [4]: all of the young mites were killed | State of surviving large mites [4]: a few surviving large mites were not able to be active normally, which were dead as times went by | Number of dead mites ([4]; twenty mites, microscopic examination): most of the mites (for example, seventeen mites) were killed
